Measured values published in US9630964B2, “Fluoro-9-methyl-β-carbolines” (priority 2013, dated 2017).
In brackets after ≈: the same amount, converted by molar mass.

Legend:
[1] = test system: human neuroblastoma cells (SH-SY5Y); assay: Differentiation of human neuroblastoma cells (SH-SY5Y), morphological examination; assay type: cell-based; settings: SH-SY5Y
Experimental: The SH-SY5Y cell line was obtained from the German collection of microorganisms and cell cultures—DSMZ, Braunschweig. The cells were cultivated in MEM (Minimum essential medium, Life Technologies) with 10% FCS (fetal calf serum, Biochrom AG) and penicillin/streptomycin (Biochrom AG). For morphological examinations the cells were seeded in a density of 1.5×10^4 cells/cm^2 in 24-well plates (Falcon, cell culture treated) with 1 mL medium. A stock solution of 10 mmol/L of the compound according to the invention 6-fluoro-9-methyl-β-carboline was prepared in 50% ethanol and sterile filtered. Five hours after seeding of the cells the compound according to the invention 6-fluoro-9-methyl-β-carboline was added in the corresponding amount to the medium achieving the desired final concentration. The medium was changed once a week. The cells were regularly microscopically examined. Microscopic images were taken at BZ Keyence 10 with a 10×lens and 4×digital zoom. An automatic contrast enhancement was made with the program BZ Analyzer.

[2] = test system: BDNF (brain-derived neurotrophic factor); assay: Quantitative RT-PCR, relative gene expression of BDNF in SH-SY5Y cells; assay type: cell-based, human; settings: 30 μM each, SH-SY5Y
Experimental: (§1) SH-SY5Y cell lines, which were provided by the institute of human genetics of university hospital Eppendorf and which they in turn received from Braunschweig resource center, were used again for the RT-PCR experiments (reverse transcriptase polymerase chain reaction) carried out for this purpose.
(§2) The cells were incubated in MEM (Minimum essential medium, Life Technologies) with 10% FCS (fetal calf serum, Biochrom AG) and penicillin/streptomycin (Biochrom AG). The cells were seeded with a density of 1×10^5 cells/cm^2 in 25 cm^2 cell culture bottles (Falcon, cell culture treated) with 5 mL medium. Stock solutions of 10 mmol/L of compounds 9-methyl-β-carboline (AC-002 or 9MβC) and 6-fluoro-9-methyl-β-carboline (AC-102 or 6F9MβC), respectively were prepared in distillated water and sterile filtered. One day after the cell seeding the compounds were added in corresponding amounts (5-55 μL) to reach final concentration in the medium of 10 μM, 20 μM and 30 μM for 6F9MβC and 30 μM, 50 μM and 70 μM for 9MβC. The references received only the corresponding amount of solvent (distilled water). The medium was changed once a week.
(§3) The cells were regularly microscopically examined and harvest after 2, 7 and 14 days of incubation time, washed with PBS and immediately frozen at −80° C.
(§4) The RNA-isolation was done with the HighPure RNA Isolation kit of the company Roche. […] The concentration of RNA was measured with nanoDrop spectrometer and the RNA integrity was determined with the aid of the Bioanalyzer 2100 (Agilent). […]
(§5) After the reaction, this run was diluted 1:4 and thereof 2 μL per each quantitative RT-PCR were used. This was performed in a LightCycler 480 under standard conditions in the SybrGreen format with annealing temperatures determined for each primer individually. […]
The specificity was verified by melting curve analysis and subsequent gel electrophoresis. For each PCR the PCR efficiency and the Cq value was determined by the program LinRegPCR and these were used in further calculations. […] Every measured value from FIGS. 5A-5I represents a mean value of 3 independent biologic samples. […]

[3] = test system: NT3 (Neurotrophin 3); assay: Quantitative RT-PCR, relative gene expression of NT3 in SH-SY5Y cells; assay type: cell-based, human; settings: 30 μM each, 14-day exposition
Experimental: as §1
(§6) The cells were incubated in MEM (Minimum essential medium, Life Technologies) with 10% FCS (fetal calf serum, Biochrom AG) and penicillin/streptomycin (Biochrom AG). The cells were seeded with a density of 1×10^5 cells/cm^2 in 25 cm^2 cell culture bottles (Falcon, cell culture treated) with 5 mL medium. […]
as §4, §5
(§7) The specificity was verified by melting curve analysis and subsequent gel electrophoresis. For each PCR the PCR efficiency and the Cq value was determined by the program LinRegPCR and these were used in further calculations. […]

[4] = test system: Cbln (Cerebellin 1 precursor protein); assay: Quantitative RT-PCR, relative gene expression of Cbln in SH-SY5Y cells; assay type: cell-based, human; settings: 30 μM each, except after 2-day exposition
Experimental: as §1, §6, §4, §5, §7

[5] = test system: DKK1 (Dickkopf-related protein 1); assay: Quantitative RT-PCR, relative gene expression of DKK1 in SH-SY5Y cells; assay type: cell-based, human
Experimental: as §1, §2, §3
The RNA-isolation was done with the HighPure RNA Isolation kit of the company Roche. This isolation includes a DNaseI digestion. The concentration of RNA was measured with nanoDrop spectrometer and the RNA integrity was determined with the aid of the Bioanalyzer 2100 (Agilent). By using random hexamer primers, protector RNA inhibitor (Roche) and transcriptor reverse transcriptase (fermentas), 300 ng RNA were transcribed into cDNA per each sample.
After the reaction, this run was diluted 1:4 and thereof 2 μL per each quantitative RT-PCR were used. This was performed in a LightCycler 480 under standard conditions in the SybrGreen format with annealing temperatures determined for each primer individually. If possible, exon spanning primers were used.
The specificity was verified by melting curve analysis and subsequent gel electrophoresis. For each PCR the PCR efficiency and the Cq value was determined by the program LinRegPCR and these were used in further calculations. B2M (β2-microglobulin) was identified from multiple reference genes to be suitable for examination conditions. All results are results relative to the corresponding reference conditions, at which only solvent was administered for the specified period of time (i.e. 2 days, 7 days or 14 days). In FIGS. 5A to 5I are also relative gene expressions (relative to reference conditions) presented. Here, the 2-day exposition is presented in light grey, the 7-day exposition in dark grey and the 14-day exposition in black. Every measured value from FIGS. 5A-5I represents a mean value of 3 independent biologic samples.
Analogous to example 4 RT-PCR experiments with the inventive active agent 7-fluoro-9-methyl-β-carboline (7F9MβC) were also performed for some important cellular factors. The experimental procedure was here identical to the experiments with 6-fluoro-9-methyl-β-carboline and 9-methyl-β-carboline. Here the same (like for 6F9MβC) final concentrations of 30 μM, 50 μM and 70 μM 7F9MβC for the culture medium were employed. The examined factors were BDNF (brain-derived neurotrophic factor), Lif (Leukemia inhibitory factor), DRD2S (short variant of dopamine receptor subtype 2) as well as DKK1 (Dickkopf-related protein 1). […]

[6] = test system: CREB; assay: Examination on cellular level: concentration of CREB; assay type: cell-based
[7] = test system: learning behavior; assay: Eight-armed labyrinth learning test; assay type: in vivo, rat; settings: rats, 2 mg/kg intraperitoneally daily, 2 hours before session; control group 14 days
Experimental: In an eight-armed labyrinth the effect of 6F9MβC on the learning behavior was tested. 5 months old male rats were got used to the experimenter in daily sessions for 10 days. Afterwards, they were allowed to explore the labyrinth in multiple sessions for 2 days and they also learnt that they get a food reward there. Then the food was reduced until the body weight was reduced by 10% of the starting weight. Afterwards, at each end of the 8 arms of the labyrinth food was placed and a camera installed that recorded every movement of the animal. On the first test day the rat was placed without a prior injection on the platform in the center of the labyrinth. At the next day 2 mg/kg body weight 6-fluoro-9-methyl-β-carboline (6F9MβC) as free base dissolved in physiological sodium chloride solution was administered intraperitoneally to the rat by the experimenter. 2 hours later the animal was placed on the platform in the center of the labyrinth from where it had access to all arms. This procedure was repeated daily until the animal only did one mistake, i.e. went in an arm, which it had already entered before in the corresponding session. At the end of the session all 8 arms had to be visited.
12 rats, that were treated with 6F9MβC and a control group of 12 rats, that only got physiological sodium chloride solution, were examined. […]

[8] = physchem; settings: water
Experimental: Furthermore, the solubility of both compounds in water was determined by preparing concentration series of both compounds in water at room temperature. The concentration at which the compound was barely soluble was determined by external calibration. The corresponding concentration was quantified by HPLC.

[9] = Degradation in liver homogenate to toxic dimethylated degradation products (HPLC); settings: rat liver homogenate, conclusion
Experimental: Also a reference measurement with pure 6-fluoro-9-methyl-β-carboline (6F9MβC) was performed.
To simulate the degradation process in the liver, different concentrations (1 μM, 10 μM and 100 μM) of 6-fluoro-9-methyl-β-carboline (6F9MβC) were incubated with homogenized rat liver for an hour under physiological conditions (37° C. in physiological phosphate-buffered sodium chloride solution, PBS). Subsequently, a HPLC measurement of the filtrated extract was carried out.
The characterization of each substance was achieved by high-performance liquid chromatography (HPLC, partly also named as high-pressure liquid chromatography). For HPLC the eluent consisted to 45% of 90% acetonitrile and to 55% of ammonium acetate (40 mM, pH<5). The flow rate was 0.4 mL/min and injection volume was 10 μL. Each sample was diluted with 60% methanol, if the signal was too strong.

Cn1c2ccc(F)cc2c2ccncc21 [6F9MβC, 6-fluoro-9-methyl-β-carboline]
concentration at which a comparable differentiation of the tested cells is observed ([1]; 15 days incubation): 30 µM
effect on proliferation and morphology of cells ([1]; 15 days, increasing concentrations, pronounced at 30 μM vs 0 μM): inhibits proliferation of cells and induces sprouting of slim extensions as well as a change in size and shape of the cells
BDNF expression relative to expression induced by 9MβC [2]: approximately twice as high
NT3 expression relative to expression induced by 9MβC [3]: approximately 3.5 times
Cbln expression relative to expression induced by 9MβC [4]: approximately 1.5 times
DKK1 expression compared to the highest concentration of 9MβC ([5]; 10 μM 6F9MβC): comparable or even higher
DKK1 expression relative to expression induced by 9MβC ([5]; 30 μM each, 14-day exposition): comparable
increase of the concentration of CREB (factor) [6]: 8
time until the criteria (only one mistake) were reached [7]: 6 days
solubility [8]: 29.7 µg/mL (≈ 148 µM)
metabolization to known toxic (di-methylated) degradation products [9]: does not lead to toxic di-methylated products
metabolization to known toxic (di-methylated) degradation products ([9]; listed as 6-fluoro-9-methyl-β-carboline): does not metabolize to known toxic degradation products
